Assay results: US5892045A, “4-aryl-3-hydroxyquinolin-2-one derivatives as ion channel modulators” (priority 1997, dated 1999)

Tests used:
[1] = test system: cloned mammalian (mSlo or hSlo) BK channels expressed in Xenopus oocytes; test: Increase of cloned BK-mediated outward current, two-electrode voltage clamp in Xenopus oocytes (IBTX-sensitive current); type: cell-based; settings: at 20 μM expressed as percent of controls; at least 5 oocytes
Method: The ability of compounds described in the present invention to open BK channels and increase whole-cell outward (K^+) BK-mediated currents was assessed under voltage-clamp conditions by determining their ability to increase cloned mammalian (mSlo or hSlo) BK-mediated outward current heterologously expressed in Xenopus oocytes [Butler, A., et al., Science, 261: 221-224 (1993); and Dworetzky, S. I., et al., Mol. Brain Res., 27: 189-193 (1994)]. The two BK constructs employed represent nearly structurally identical homologous proteins, and have proven to be pharmacologically identical in our tests. […] The relative contribution of BK channels current to total outward current was determined by subtraction of the current remaining in the presence of IBTX (non-BK current) from the current profiles obtained in all other experimental conditions (control, drug, and wash). […] All compounds were tested in at least 5 oocytes and are reported at the single concentration of 20 μM; the effect of the selected compounds of Formula I on BK current was expressed as the percent of control IBTX-sensitive current and is listed in Table I. Recordings were accomplished using standard two-electrode voltage clamp techniques [Stuhmer, W., et al., Methods in Enzymology, Vol. 207: 319-339 (1992)]; voltage-clamp protocols consisted of 500-750 ms duration step depolarization from a holding potential of -60 mV to +140 mV in 20 mV steps. The experimental media (modified Barth's solution) consisted of (in mM): NaCl (88), NaHCO3 (2.4), KCl (1.0), HEPES (10), MgSO4 (0.82), Ca(NO3)2 (0.33), CaCl2 (0.41); pH 7.5.

[2] = test system: Ca^2+ -activated potassium channels; settings: outside-out patches, myelinated nerve fibers; Koh 1994; cited from earlier work
BK channel [3] = settings: very limited electrophysiological experiments; Laurent 1993; cited from earlier work
BK channel [4] = settings: Galvez 1990; cited from earlier work

| Molecule | BK Current (percent of control IBTX-sensitive current) [1] | other results |
| --- | --- | --- |
| O=c1[nH]c2cc(Cl)cc(Cl)c2c(-c2cc(Cl)ccc2O)c1O [Example 2, 5,7-Dichloro-4-(5-chloro-2-hydroxyphenyl)-3-hydroxy-2(1H)-quinolinone] | ++ (>150%) |  |
| COc1ccc(Br)cc1-c1c(O)c(=O)[nH]c2ccc([N+](=O)[O-])cc12 [Example 3] | + (100-150%) |  |
| COc1ccc(Br)cc1-c1c(O)c(=O)[nH]c2cc(Cl)cc(Cl)c12 [Example 4] | ++ (>150%) |  |
| COc1ccc(Cl)cc1-c1c(O)c(=O)[nH]c2cc(Cl)ccc12 [Example 5] | + (100-150%) |  |
| O=c1[nH]c2ccccc2c(-c2cc(Br)ccc2O)c1O [Example 6] | + (100-150%) |  |
| Cn1c(=O)c(O)c(-c2cc(Br)ccc2O)c2ccccc21 [Example 7] | + (100-150%) |  |
| O=c1[nH]c2ccccc2c(-c2cc(Cl)ccc2O)c1O [Example 8] | + (100-150%) |  |
| O=c1[nH]c2ccc([N+](=O)[O-])cc2c(-c2cc(Br)ccc2O)c1O [Example 9] | ++ (>150%) |  |
| O=c1[nH]c2cc(C(F)(F)F)ccc2c(-c2cc(Cl)ccc2O)c1O [Example 10] | ++ (>150%) |  |
| O=c1[nH]c2cc(C(F)(F)F)ccc2c(-c2cc(Br)ccc2O)c1O [Example 11] | ++ (>150%) |  |
| O=c1[nH]c2cc(Cl)cc(Cl)c2c(-c2cc(Br)ccc2O)c1O [Example 12] | ++ (>150%) |  |
| O=c1[nH]c2ccc(Cl)cc2c(-c2cc(Cl)ccc2O)c1O [Example 13] | + (100-150%) |  |
| O=c1[nH]c2cccc(Cl)c2c(-c2cc(Cl)ccc2O)c1O [Example 14] | + (100-150%) |  |
| O=c1[nH]c2cc(Cl)ccc2c(-c2cc(Cl)ccc2O)c1O [Example 15] | ++ (>150%) |  |
| O=c1[nH]c2ccc(C(F)(F)F)cc2c(-c2cc(Cl)ccc2O)c1O [Example 16] | ++ (>150%) |  |
| O=c1[nH]c2ccc(C(F)(F)F)cc2c(-c2cc(Br)ccc2O)c1O [Example 17] | ++ (>150%) |  |
| Cn1c(=O)c(O)c(-c2cc(Cl)ccc2O)c2c(Cl)cc(Cl)cc21 [Example 18] | ++ (>150%) |  |
| O=c1[nH]c2ccc(Br)cc2c(-c2cc(Br)ccc2O)c1O [Example 19] | ++ (>150%) |  |
| O=c1[nH]c2ccc(Br)cc2c(-c2cc(Cl)ccc2O)c1O [Example 20] | ++ (>150%) |  |
| O=c1[nH]c2c(Cl)cccc2c(-c2cc(Cl)ccc2O)c1O [Example 21] | + (100-150%) |  |
| O=C(CCc1ccc(O)cc1)c1c(O)cc(O)cc1O [Phloretin] |  | open probability of Ca^2+ -activated potassium channels [2]: increase the open probability |
| CNc1nc(Br)cn2cc(C#N)nc12 [SCA-40, 6-Bromo-8-(methylamino) imidazo[1,2-a]pyrazine-2-carbonitrile] |  | BK channel opening activity (BK channel [3]): BK channel opener |
| iberiotoxin: specific and potent BK channel-blocking toxin iberiotoxin (IBTX) (QFTDVDCSVSKECWSVCKDLFGVDRGKCMGKKCRCYQ; UniProt P24663 1-37, looked up) |  | BK channel block (BK channel [4]): specific and potent BK channel-blocking toxin |
